Measurements: publication PMC11755020 (Computational and Structural Biotechnology Journal, 2024)

Molecular target: T1, HNF4α (hepatocyte nuclear factor 4α) (Homo sapiens, UniProt P41235)
T1 sequence (P41235 147-377 limits assumed): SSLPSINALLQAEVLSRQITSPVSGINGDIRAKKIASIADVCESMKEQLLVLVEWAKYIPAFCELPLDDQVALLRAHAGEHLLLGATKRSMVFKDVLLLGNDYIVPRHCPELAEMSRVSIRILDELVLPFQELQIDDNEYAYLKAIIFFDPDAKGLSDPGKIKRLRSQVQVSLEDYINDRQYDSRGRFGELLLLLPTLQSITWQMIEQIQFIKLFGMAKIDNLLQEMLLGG
Assay: microscale thermophoresis
Type: binding

Kd [µM]	Structure (SMILES)
3110	O=C(/C=C/c1ccc(O)c(O)c1)O[C@@H]1C[C@@](OC(=O)/C=C/c2ccc(O)c(O)c2)(C(=O)O)C[C@@H](O)[C@@H]1O [cynarin]
78.2	COc1c(/C=C/C(=O)c2ccc(O)cc2)ccc(O)c1O [licochalcone B]
34.9	O=C(/C=C/c1ccc(O)c(O)c1)O[C@H](Cc1ccc(O)c(O)c1)C(=O)O [rosmarinic acid]
